We go through 43 molecules from ChEMBL document CHEMBL1201862, “PubChem BioAssay data set” (2004).

Test systems include Hs-578T; MDA-MB-231; MCF7; NCI/ADR-RES.
Holding throughout (assay): DTP human tumour cell line panel, 48 h

Where “and” joins values, the source holds several entries; their conditions need not be identical. Equal entries are not always repeated.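 Following 48 hours of exposure in 96-well plates, responses at five concentrations were used to interpolate endpoints linearly. Abbreviation: GI50, concentration required for 50% inhibition of growth.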 Calls of active or inactive are those of the source. No stated cut-off is given here; in the data, active = GI50 up to about 1.1 µM and inactive = higher.

For `COc1ccc2c(c1)C(=O)CCc1cc(OC)c(OC)c(OC)c1-2`, the GI50 in the test with Hs-578T is 0.0243 µM (active); with MDA-MB-231, 0.166 µM (active); in the test on MCF7, < 0.01 µM (active); with NCI/ADR-RES it was 0.0214 µM (active).

Consider `OCCSCC(O)Cn1cnc2c(O)nc(Nc3ccccc3)nc21` (stereo unspecified), for which the GI50 with Hs-578T, in the test on MDA-MB-231, in the test with MCF7 and in the test with NCI/ADR-RES was > 100 µM (inactive) in each case.

`CCNc1cc2c(cc1O)CC[C@@H]1[C@@H]2CC[C@]2(C)[C@@H](O)CC[C@@H]12`: the GI50 is 3.62 µM (inactive) with Hs-578T, 10.5 µM (inactive) in the test on MDA-MB-231, 8.43 µM (inactive) in the test on MCF7 and 1.04 µM (active) with NCI/ADR-RES.

As for `Cc1cc(Oc2cnc(=O)[nH]c2)cs1`, the GI50 in the test on Hs-578T, in the test on MDA-MB-231, with MCF7 and in the test with NCI/ADR-RES was > 100 µM (inactive) in each case.

`FC(F)(F)c1nc2cc(SSc3cc4nc(C(F)(F)F)[nH]c4cc3Cl)c(Cl)cc2[nH]1`: the GI50 in the test with Hs-578T was > 100 µM (inactive); in the test on MDA-MB-231 it was > 100 µM (inactive); in the test with MCF7 it was 65.5 µM (inactive); with NCI/ADR-RES, > 100 µM (inactive).

On to `Oc1cc(-c2ccc(Cl)cc2)cn2c1nc1ccccc12`, for which the GI50 was 36.6 µM (inactive) with Hs-578T, > 100 µM (inactive) with MDA-MB-231, > 100 µM (inactive) in the test with MCF7 and > 100 µM (inactive) in the test with NCI/ADR-RES.

Take `CC1(C)OP(=O)(O)C=C1Sc1ccc([N+](=O)[O-])cc1[N+](=O)[O-]`: the GI50 in the test on Hs-578T, in the test with MCF7 and with NCI/ADR-RES was > 100 µM (inactive) throughout.

As to `CNC(=S)N/N=C(\C)c1cc(OC)c(OC)cc1O`, the GI50 with MDA-MB-231, with MCF7 and in the test on NCI/ADR-RES was > 100 µM (inactive) each time.

Take `COc1ccc(-c2nc(SCC(=O)N/N=C/c3ccc([N+](=O)[O-])cc3)[nH]c2-c2ccc(OC)cc2)cc1`: the GI50 was 14.4 µM (inactive) in the test on Hs-578T, 21.2 µM (inactive) in the test with MDA-MB-231, 4.44 µM (inactive) in the test with MCF7 and 19.1 µM (inactive) in the test with NCI/ADR-RES.

For `O=C(Nc1sccc1S(=O)(=O)c1ccccc1)c1cccnc1`, the GI50 in the test on Hs-578T is > 46.7 µM (inactive); in the test on MDA-MB-231, > 69.5 µM (inactive); in the test on MCF7, 8.07 µM (inactive); in the test on NCI/ADR-RES, 3.96 µM (inactive).

As to `COc1ccc(CC(COS(=O)(=O)c2ccc(C)cc2)NS(=O)(=O)c2ccc(C)cc2)cc1` (stereo unspecified), the GI50 in the test on Hs-578T is 15.6 µM (inactive); in the test on MDA-MB-231, > 53.5 µM (inactive); in the test on MCF7, 8.24 µM (inactive); with NCI/ADR-RES, 11 µM (inactive).

Regarding `CCOC(=O)CCSS(=O)(=O)c1ccccc1`, the GI50 is 28.6 µM (inactive) with MCF7 and > 100 µM (inactive) in the test with NCI/ADR-RES.

`CCOC(=O)c1c(CN2CCOCC2)n(Cc2ccccc2)c2c1cc(O)c1nc(C)c(C)nc12`: the GI50 in the test on Hs-578T is 36.1 µM (inactive); with MDA-MB-231, 85.1 µM (inactive); with MCF7, 16.7 µM (inactive); in the test on NCI/ADR-RES, 35.5 µM (inactive).

On to `CC(=O)Nc1ccc2cc(C)c(O)nc2n1`, for which the values for the GI50 in the test on Hs-578T, in the test on MDA-MB-231 and in the test with NCI/ADR-RES were 85.7 µM (inactive), 75.7 µM (inactive) and 8.09 µM (inactive), respectively.

For `CN(C)C(=S)C(Cl)(c1ccccc1)c1ccccc1`, the GI50 was > 100 µM (inactive) in the test on Hs-578T, 59.7 µM (inactive) in the test with MDA-MB-231, 28.6 µM (inactive) with MCF7 and 89.5 µM (inactive) in the test on NCI/ADR-RES.

`O=C(O)C1CCCN1Cc1ccc2c(c1)OCO2` (stereo unspecified): the GI50 with Hs-578T, in the test with MDA-MB-231, with MCF7 and in the test on NCI/ADR-RES was > 100 µM (inactive) throughout.

For `COc1cc(OC)nc(NC(=O)NS(=O)(=O)c2cccc3ncn(C)c(=O)c23)n1`, the GI50 with Hs-578T is 67.1 µM (inactive); in the test on MDA-MB-231 it was > 100 µM (inactive); in the test with MCF7, > 100 µM (inactive); with NCI/ADR-RES, > 100 µM (inactive).

As for `CC(=O)O[C@H]1CC2C(C3CC[C@H](C(C)CCC(N)=O)[C@]31C)[C@H](OC(C)=O)C[C@@H]1CC3(CC[C@]21C)OOC1(CCC(C)CC1)OO3` (stereo partly specified), the GI50 in the test with Hs-578T was 2.07 µM (inactive) and 2.38 µM (inactive); with MDA-MB-231 it was 2.21 µM (inactive); in the test on MCF7, 2.04 µM (inactive) and 2.65 µM (inactive); with NCI/ADR-RES it was 2.55 µM (inactive) and 1.65 µM (inactive).

As to `CCCOC(=O)C1C2CCC(O2)C1C(=O)O` (stereo unspecified), the GI50 in the test on Hs-578T, with MDA-MB-231, in the test with MCF7 and in the test on NCI/ADR-RES was > 100 µM (inactive) each time.

As to `O=S(=O)(O)c1cc(/N=N/c2c(O)ccc3ccccc23)ccc1/C=C/c1ccc(/N=N/c2c(O)ccc3ccccc23)cc1S(=O)(=O)O`, the results for the GI50 in the test with Hs-578T, in the test on MDA-MB-231 and in the test with NCI/ADR-RES were > 100 µM (inactive), 40.3 µM (inactive) and > 100 µM (inactive), respectively.

With `C=C1CC2(CCCC3(CC(=C)C(=O)O3)C2(C)C)OC1=O` (stereo unspecified), the GI50 with Hs-578T was 20.8 µM (inactive); with MDA-MB-231, 4.95 µM (inactive); in the test on MCF7, 3.4 µM (inactive); in the test on NCI/ADR-RES, 13.2 µM (inactive).

On to `CCC1CCN=C(Cn2cc(C)c(=O)[nH]c2=O)N1` (stereo unspecified), for which the GI50 with Hs-578T, in the test on MDA-MB-231, in the test on MCF7 and in the test with NCI/ADR-RES was > 100 µM (inactive) throughout.

In the case of `Nc1nc(Br)nc2ncn(C3CC(O)C(CO)O3)c12` (stereo unspecified), the GI50 is > 100 µM (inactive) in the test with Hs-578T, > 100 µM (inactive) in the test on MDA-MB-231 and > 21.3 µM (inactive) with MCF7.

In the case of `C[C@@]12C[C@@H](c3ccccc3O1)N1CCCCSC1=N2`, the GI50 in the test with Hs-578T, in the test on MDA-MB-231, in the test with MCF7 and with NCI/ADR-RES was > 100 µM (inactive) each time.

`CCCCc1ccc(-n2sc3ncc([N+](=O)[O-])cc3c2=O)cc1`: the GI50 in the test on Hs-578T was 4.93 µM (inactive); with MDA-MB-231, 11.4 µM (inactive); in the test with MCF7, 16 µM (inactive); with NCI/ADR-RES it was 11.5 µM (inactive).

As for `Oc1ccc(-c2nc(-c3ccc4ccccc4n3)c(-c3ccc(F)cc3)[nH]2)cc1`, the GI50 with Hs-578T is 11 µM (inactive); in the test with MDA-MB-231, 18.5 µM (inactive); in the test with MCF7, 4.61 µM (inactive); in the test with NCI/ADR-RES, 4.74 µM (inactive).

`Nc1nc2c(ncn2Cc2ccc(CO)cc2)c(=O)[nH]1`: the GI50 in the test on Hs-578T, in the test with MDA-MB-231, in the test on MCF7 and with NCI/ADR-RES was > 100 µM (inactive) in each case.

As to `COc1ccc(-n2c(N)c(C#N)[nH]c2=O)cc1`, the GI50 in the test on Hs-578T, with MDA-MB-231 and in the test on NCI/ADR-RES was > 10 µM (inactive) each time.

Turning to `COc1ccc2c(C)c(Oc3c(Cl)c(Cl)c(O)c(C#N)c3C#N)oc2c1`, the GI50 with Hs-578T, with MDA-MB-231, in the test on MCF7 and with NCI/ADR-RES was > 100 µM (inactive) each time.

Regarding `Cc1cn(CC2=NCCN2)c(=O)[nH]c1=O`, the GI50 with Hs-578T, with MDA-MB-231, in the test with MCF7 and in the test with NCI/ADR-RES was > 100 µM (inactive) each time.

Regarding `N#C/N=C1/c2ccccc2/C(=N/C#N)c2cc(CO)ccc21`, the GI50 in the test with Hs-578T is 69.2 µM (inactive); in the test on MDA-MB-231, 71.4 µM (inactive); in the test on MCF7 it was 30.6 µM (inactive); in the test on NCI/ADR-RES, 28.5 µM (inactive).

With `CCOC(=O)C1=C(C)N(Cc2ccc(Cl)cc2Cl)C2(O)C=CC(=O)C3C(=O)N(c4ccccc4)C(=O)C132` (stereo unspecified), the GI50 with Hs-578T was 3.37 µM (inactive); in the test on MDA-MB-231 it was 2.1 µM (inactive); with MCF7, 0.857 µM (active); in the test on NCI/ADR-RES, 2.29 µM (inactive).

In the case of `Cc1cn(C2CC(O)C(Cn3nncc3Cn3ccc(=O)[nH]c3=O)O2)c(=O)[nH]c1=O` (stereo unspecified), the GI50 in the test with Hs-578T, with MDA-MB-231, with MCF7 and in the test on NCI/ADR-RES was > 100 µM (inactive) throughout.

Regarding `CNc1ccc(Cl)cc1C(=O)N1CCC[C@H]1CO`, the GI50 with Hs-578T, with MDA-MB-231, with MCF7 and in the test with NCI/ADR-RES was > 100 µM (inactive) each time.

For the molecule `CN(C(=O)c1ccc(Cl)cc1)C(=S)N1CCN(c2ccccc2)CC1`, the GI50 with Hs-578T is 19 µM (inactive); in the test on MDA-MB-231 it was > 100 µM (inactive); in the test with MCF7, 78.9 µM (inactive).

Take `CSc1c(C(N)=S)c(N)nn1-c1ccccc1`: the GI50 in the test on Hs-578T, in the test on MDA-MB-231, in the test on MCF7 and in the test with NCI/ADR-RES was > 100 µM (inactive) throughout.

For `O=c1[nH]c(=O)n(C2OC(CO)C(O)C2O)cc1OCCc1ccccc1` (stereo unspecified), the GI50 in the test on Hs-578T, in the test with MDA-MB-231, in the test on MCF7 and with NCI/ADR-RES was > 100 µM (inactive) in each case.

On to `CCN(CC)c1ncnc2c1ncn2CCNC(CO)(CO)CO`, for which the GI50 in the test on Hs-578T, in the test on MDA-MB-231, with MCF7 and in the test on NCI/ADR-RES was > 100 µM (inactive) throughout.

On to `CN1C(=O)c2ccccc2OC12C=Cc1ccc(O)cc1O2` (stereo unspecified), for which the GI50 with Hs-578T was 19.3 µM (inactive); in the test with MDA-MB-231 it was 18.5 µM (inactive); in the test with MCF7, 32.4 µM (inactive); in the test on NCI/ADR-RES, 13.5 µM (inactive).

As to `CCCSc1ccc2[nH]c(N3C(=O)/C(=C/c4ccco4)N=C3c3ccccc3)cc2c1`, the GI50 is 15.8 µM (inactive) with MCF7 and 19.6 µM (inactive) with NCI/ADR-RES.

Regarding `Oc1cccc2ccc(Br)nc12`, the GI50 in the test with Hs-578T, with MDA-MB-231, in the test on MCF7 and in the test with NCI/ADR-RES was > 100 µM (inactive) in each case.

As for `O/N=N/c1ccccn1.OCC1OC2OC3C(CO)OC(OC4C(CO)OC(OC5C(CO)OC(OC6C(CO)OC(OC7C(CO)OC(OC1C(O)C2O)C(O)C7O)C(O)C6O)C(O)C5O)C(O)C4O)C(O)C3O` (stereo unspecified), the GI50 was > 100 µM (inactive) with Hs-578T, > 100 µM (inactive) with MDA-MB-231, > 100 µM (inactive) with MCF7 and 31.9 µM (inactive) in the test with NCI/ADR-RES.

Turning to `CC(C)[C@@H]1ON1C(C)c1ccccc1` (stereo partly specified), the GI50 in the test on Hs-578T is > 100 µM (inactive); with MDA-MB-231, > 100 µM (inactive); in the test with MCF7, 13.7 µM (inactive); in the test on NCI/ADR-RES, > 100 µM (inactive).
